Reference: ChEMBL document CHEMBL4325908, “Ligand-based design, synthesis and biological evaluation of xanthine derivatives as LSD1/KDM1A inhibitors” (Eur J Med Chem, 2019)

Key:
MGC-803 [1] = assay: Antiproliferative activity against human MGC803 cells after 72 hrs by MTT assay; settings: MGC-803, 72 h
[2] = target: Indoleamine 2,3-dioxygenase 1 (Homo sapiens, UniProt P14902); assay: Inhibition of IDO1 (unknown origin)
MGC-803 [3] = assay: Antiproliferative activity against LSD1 knock down human MGC803 cells after 72 hrs by MTT assay; format: functional, cell-based; settings: MGC-803, 72 h
MGC-803 [4] = assay: Ratio of IC50 for LSD1 knock down human MGC803 cells to IC50 for human MGC803 cells; format: functional
[5] = target: Lysine-specific histone demethylase 1A (Homo sapiens, UniProt O60341); assay: Inhibition of full length recombinant LSD1 (unknown origin) expressed in Escherichia coli BL21(DE3) using H3K4me2 as substrate after 30 mins in presence of FAD by amplex red reagent based fluorescence assay
[6] = target: Bromodomain-containing protein 4 (Homo sapiens) (UniProt O60885); assay: Inhibition of BRD4 (unknown origin) at 25 uM relative to control
MAO-B [7] = target: T1, MAO-B (Homo sapiens, UniProt P27338); assay: Inhibition of full length recombinant FLAG-tagged human MAO-B expressed in baculovirus infected sf9 cells at 1 uM preincubated for 15 mins followed by luciferin derived substrate addition measured after 60 mins by luciferase reporter gene assay relative to control; settings: probe luciferin derived substrate
T1 sequence (P27338 whole entry): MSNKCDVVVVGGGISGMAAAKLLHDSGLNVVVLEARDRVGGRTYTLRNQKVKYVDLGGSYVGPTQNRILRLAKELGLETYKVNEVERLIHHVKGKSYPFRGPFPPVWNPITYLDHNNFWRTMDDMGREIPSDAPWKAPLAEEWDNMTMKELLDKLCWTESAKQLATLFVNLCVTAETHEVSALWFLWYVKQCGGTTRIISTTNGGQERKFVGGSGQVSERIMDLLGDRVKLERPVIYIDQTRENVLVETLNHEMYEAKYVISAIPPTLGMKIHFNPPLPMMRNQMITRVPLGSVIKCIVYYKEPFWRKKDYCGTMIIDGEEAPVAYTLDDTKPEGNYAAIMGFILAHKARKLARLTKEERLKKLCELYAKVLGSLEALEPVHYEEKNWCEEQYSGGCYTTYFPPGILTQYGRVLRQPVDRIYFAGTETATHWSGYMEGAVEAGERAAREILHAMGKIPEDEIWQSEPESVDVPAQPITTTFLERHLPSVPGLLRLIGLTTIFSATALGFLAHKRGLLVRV

MAO-A [8] = target: T2, MAO-A (Homo sapiens, UniProt P21397); assay: Inhibition of full length recombinant FLAG-tagged human MAO-A expressed in baculovirus infected sf9 cells at 1 uM preincubated for 15 mins followed by luciferin derived substrate addition measured after 60 mins by luciferase reporter gene assay relative to control; settings: probe luciferin derived substrate
T2 sequence (P21397 whole entry): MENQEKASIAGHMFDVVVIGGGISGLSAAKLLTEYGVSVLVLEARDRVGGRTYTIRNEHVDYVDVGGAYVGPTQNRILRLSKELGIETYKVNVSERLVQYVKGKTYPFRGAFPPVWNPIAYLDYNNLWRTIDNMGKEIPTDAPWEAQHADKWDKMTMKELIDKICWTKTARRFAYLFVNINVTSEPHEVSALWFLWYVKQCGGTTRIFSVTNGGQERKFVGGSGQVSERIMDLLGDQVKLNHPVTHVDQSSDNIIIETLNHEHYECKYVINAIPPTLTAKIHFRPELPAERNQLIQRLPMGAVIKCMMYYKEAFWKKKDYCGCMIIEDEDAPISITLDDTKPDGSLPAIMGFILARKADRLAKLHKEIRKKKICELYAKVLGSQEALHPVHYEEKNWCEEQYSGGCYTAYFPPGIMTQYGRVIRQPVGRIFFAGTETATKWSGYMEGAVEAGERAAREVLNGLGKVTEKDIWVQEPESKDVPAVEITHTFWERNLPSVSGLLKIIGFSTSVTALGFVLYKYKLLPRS

MAO-A [9] = target: T2, MAO-A; assay: Inhibition of full length recombinant FLAG-tagged human MAO-A expressed in baculovirus infected sf9 cells at 0.1 uM preincubated for 15 mins followed by luciferin derived substrate addition measured after 60 mins by luciferase reporter gene assay relative to control; settings: probe luciferin derived substrate
MAO-B [10] = target: T1, MAO-B; assay: Inhibition of full length recombinant FLAG-tagged human MAO-B expressed in baculovirus infected sf9 cells at 0.1 uM preincubated for 15 mins followed by luciferin derived substrate addition measured after 60 mins by luciferase reporter gene assay relative to control; settings: probe luciferin derived substrate

Chain of Indoleamine 2,3-dioxygenase 1 (P14902 whole entry): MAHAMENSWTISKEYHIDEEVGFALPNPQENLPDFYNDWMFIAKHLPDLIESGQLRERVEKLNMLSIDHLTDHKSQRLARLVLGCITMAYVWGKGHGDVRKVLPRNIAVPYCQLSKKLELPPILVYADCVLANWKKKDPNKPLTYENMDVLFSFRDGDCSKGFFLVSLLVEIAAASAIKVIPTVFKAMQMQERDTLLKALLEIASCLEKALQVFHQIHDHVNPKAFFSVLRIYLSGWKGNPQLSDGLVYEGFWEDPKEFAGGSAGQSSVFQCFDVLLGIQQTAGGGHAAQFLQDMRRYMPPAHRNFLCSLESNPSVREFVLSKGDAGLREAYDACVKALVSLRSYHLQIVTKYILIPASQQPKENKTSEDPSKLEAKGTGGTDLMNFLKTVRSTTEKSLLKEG

CCCn1c(SCc2ccc(F)cc2)nc2c1c(=O)[nH]c(=O)n2C
IC50 (MGC-803 [1]): 0.687 µM
IC50 [2]: 96.9 µM
IC50 (MGC-803 [3]): 2.02 µM
Ratio IC50 (MGC-803 [4]): 2 - 3
IC50 [5]: 14.2 µM
inhibition [6]: 49%

CCCn1c(SCc2cccc(C)c2)nc2c1c(=O)[nH]c(=O)n2C
IC50 (MGC-803 [1]): 2.46 µM
inhibition at 1 h, 1 µM (MAO-B [7]): 61%
inhibition at 1 h, 1 µM (MAO-A [8]): 20%
IC50 [2]: 96.9 µM
IC50 (MGC-803 [3]): 4.97 µM
inhibition at 1 h, 0.1 µM (MAO-A [9]): 9%
Ratio IC50 (MGC-803 [4]): 2 - 3
inhibition at 1 h, 0.1 µM (MAO-B [10]): 16%
IC50 [5]: 8.89 µM
inhibition [6]: 52%

CCCn1c(S)nc2c1c(=O)[nH]c(=O)n2C
IC50 [5]: 6.45 µM

CCCn1c(SCc2ccc(Cl)cc2)nc2c1c(=O)[nH]c(=O)n2C
IC50 [5]: 25.7 µM
